Laboratory results reported in US20230391778A1, “INDOLIN-2-ONE OR PYRROLO -PYRIDIN -2 -ONE DERIVATIVES” (Hoffmann-La Roche Inc., priority 2014, published 2023).

How the values were obtained:
[1] = biological target: T1, mouse ENT-1 transporter (Mus musculus, UniProt Q9JIM1); assay: Measure of adenosine transport activity (ENT1 adenosine uptake inhibition); format: cell-based; conditions: stable cells expressing mouse ENT-1, [2,8-3H]-adenosine 6 nM, 20 min
T1 construct: expressed in transfected cells
T1 sequence (Q9JIM1 1-460): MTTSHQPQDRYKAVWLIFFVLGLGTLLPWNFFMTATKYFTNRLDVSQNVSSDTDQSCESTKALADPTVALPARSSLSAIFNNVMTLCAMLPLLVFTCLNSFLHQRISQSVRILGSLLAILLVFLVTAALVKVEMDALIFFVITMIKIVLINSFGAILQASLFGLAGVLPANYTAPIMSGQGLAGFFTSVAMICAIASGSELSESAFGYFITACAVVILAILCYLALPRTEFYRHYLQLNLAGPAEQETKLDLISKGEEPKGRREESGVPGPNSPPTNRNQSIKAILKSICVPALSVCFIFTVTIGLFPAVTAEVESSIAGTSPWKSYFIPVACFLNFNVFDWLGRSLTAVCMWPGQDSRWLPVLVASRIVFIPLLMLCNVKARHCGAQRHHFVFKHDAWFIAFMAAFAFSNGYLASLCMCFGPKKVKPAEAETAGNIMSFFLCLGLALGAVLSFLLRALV
Method in brief: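 Stable mouse ENT-1 cells, 60,000/well, washed into pH 7.4 Hepes-Tris uptake buffer and incubated at RT with compound (1% DMSO final) for 20 min with shaking. Non-specific uptake defined with 10 μM NBTI; cell-associated radioactivity counted by scintillation after ice-cold washes.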

[2] = tested on: L-687,414-induced hyperlocomotion; assay: L-687,414-induced hyperlocomotion; format: in vivo, mouse; conditions: Dose ip 30 mg/kg, mice, 50 mg/kg s.c. L-687,414; for inhibition in vivo at 30 mg/kg: Mus musculus
Protocol: The described compounds of formula I reduce L-687,414-induced hyperlocomotion. This was assessed by using a computerized Digiscan 16 Animal Activity Monitoring System (Omnitech Electronics, Columbus, Ohio) to quantify locomotor activity. Animals were kept under a 12 h light/dark cycle and experiments were performed during the light period. Each activity monitoring chamber consisted of a Plexiglas box (41×41×28 cm; W×L×H) with sawdust bedding on the floor surrounded by invisible horizontal and vertical infrared sensor beams. The test boxes were divided by a Plexiglas cross providing each mouse with 20×20 cm of moving space. Cages were connected to a Digiscan Analyzer linked to a computer that constantly collected the beam status information. Records of photocell beam interruptions for individual animals were taken every 5 min over the duration of the experimental session and the sum of the first 6 periods was used as the final parameter. At least 8 mice were used in each treatment group. Compounds were administered either p.o. 15 min before a s.c. injection of 50 mg/kg of L-687,414, or i.p. at the same time as a s.c. injection of 50 mg/kg of L-687,414. Mice were then transferred from their home cage to the recording chambers for a 15-min habituation phase allowing free exploration of the new environment. Horizontal activity was then recorded for a 30-min time period. The % inhibition of L-687,414-induced hyperlocomotion was calculated according to the equation:
((Veh+L-687,414 horizontal activity−drug+L-687,414 horizontal activity)/Veh+L-687,414 horizontal activity)×100
ID50 values, defined as doses of each compound producing 50% inhibition of L-687,414-induced hyperlocomotion, were calculated by linear regression analysis of a dose-response data using an Excel-based computer-fitting program.
As data was not presupposed to be normally distributed, groups treated with test compounds were statistically compared with the control (vehicle-treated) group using one-tailed Mann Whitney U tests. In statistics, the Mann-Whitney U test (also called the Mann-Whitney-Wilcoxon (MWW) or Wilcoxon rank-sum test) is a non-parametric statistical hypothesis test for assessing whether one of two samples of independent observations tends to have larger values than the other. It is one of the most well-known non-parametric significance tests. […] P values given in table 1 are one-tailed since only decreases in locomotion were expected and tested for (Mann, H. B., Whitney, D. R. (1947), “On a Test of Whether one of Two Random Variables is Stochastically Larger than the Other”, Annals of Mathematical Statistics, 18 (1), 50-60).

[3] = tested on: mice; assay: SmartCube behavioral signature similarity analysis; format: in vivo, mouse; parameters: key to discrimination rate vs Clozapine (similarity analysis) / discrimination rate vs Olanzapine (similarity analysis) / discrimination rate vs Risperidone (similarity analysis): fraction; 0.5 = zero distinguishability between the two drugs; conditions: for discrimination rate vs Clozapine (similarity analysis) / discrimination rate vs Olanzapine (similarity analysis) / discrimination rate vs Risperidone (similarity analysis): 5 mg/kg i.p., SmartCube, rate of 0.70 or lower = similar
Excerpt: In addition to the reversal of L-687,414 induced hyperlocomotion experiment as described above, some compounds of the present invention have been tested in SmartCube®, an automated system in which the behaviors of compound-treated mice in response to multiple challenges are captured by digital video and analyzed with computer algorithms (Roberds et al., Frontiers in Neuroscience, 2011, Vol. 5, Art. 103, 1-4; Vadim Alexandrov, Dani Brunner, Taleen Hanania, Emer Leahy Eur. J. Pharmacol. 2015, 750, 82-99). In this way, the neuro-pharmacological effects of a test compound can be predicted by similarity to major classes of compounds, such as antipsychotics, anxiolytics and antidepressants.
As mentioned above, some compounds have been tested in SmartCube©, an analytical system developed by PsychoGenics Inc.
SmartCube® was used to compare the behavioral signature of a test compound to a database of behavioral signatures obtained from a large set of clinically approved reference drugs, grouped per indications. In this way, the neuro-pharmacological effects of a test compound can be predicted by similarity to major classes of compounds, such as antipsychotics, anxiolytics and antidepressants. This approach is ideally suited to screen collections of existing drugs or drug candidates with previously unknown neuropharmacology, which could expedite the development of new and unexpected treatments for psychiatric disorders.
Some compounds of the present invention were injected i.p. at different doses 15 minutes before the test. At least 8 mice were used in each treatment group. Digital videos of the subjects were processed with computer vision algorithms to extract over 2000 dependent measures including frequency and duration of many different behavioral states. The results of the classifications are presented as bar charts for each compound and dose (mg/kg), the Y-axis indicates the relative probability that the test compound will show efficacy in the specific CNS indication.
For comparison, the behavioral signatures of the atypical antipsychotics clozapine, olanzapine and risperidone are shown in FIG. 2. Compounds of the present invention show similar signatures to those of atypical antipsychotics. An independent analysis was performed on the unclassified data to determine the similarity of the example compounds to active doses of known atypical antipsychotics. For this analysis, we use discrimination rate as the measure of separability between the two drugs, i.e. one drug's “distinguishability” from another. A rate equal to 50% (or 0.5) corresponds to zero distinguishability. […] In most cases, the example compounds show a similarity to risperidone, clozapine and olanzapine with a discrimination rate of <0.70.

Row | Molecule | IC50 [1] | inhibition in vivo at 30 mg/kg [2] | also measured
1 | 3,3-dimethyl-1,6-bis(5-methylpyrazin-2-yl)indolin-2-one [Example 91] | 1.82 µM |  | L-687,414-induced hyperlocomotion Inhibition, ip [%] [2]: 73.7%
2 | Cc1ncc(-c2ccc3c(c2)N(c2ccncc2)C(=O)C3(C)C)cn1 [Example 1, 3,3-Dimethyl-6-(2-methylpyrimidin-5-yl)-1-(pyridin-4-yl)indolin-2-one] | 0.431 µM | 95.4% | 
3 | Cc1ncc(-c2ccc3c(c2)N(c2cn(C)cn2)C(=O)C3(C)C)cn1 [Example 2, 3,3-Dimethyl-1-(1-methyl-1H-imidazol-4-yl)-6-(2-methylpyrimidin-5-yl)indolin-2-one] | 0.613 µM | 95.7% | 
4 | Cc1ncc(-c2ccc3c(c2)N(c2ccn(C)n2)C(=O)C3(C)C)cn1 [Example 4, 3,3-Dimethyl-1-(1-methyl-1H-pyrazol-3-yl)-6-(2-methylpyrimidin-5-yl)indolin-2-one] | 0.951 µM | 93.4% | 
5 | Cc1cc(N2C(=O)C(C)(C)c3ccc(-c4cnc(C)nc4)cc32)c(F)cn1 [Example 25, 1-(5-Fluoro-2-methylpyridin-4-yl)-3,3-dimethyl-6-(2-methylpyrimidin-5-yl)indolin-2-one] |  |  | SmartCube similarity to major drug classes [3]: similarity to atypical antipsychotics; discrimination rate vs Clozapine (similarity analysis) [3]: 0.61; discrimination rate vs Olanzapine (similarity analysis) [3]: 0.62; discrimination rate vs Risperidone (similarity analysis) [3]: 0.74
6 | CC(C)c1cn(-c2ccc3c(c2)N(c2ccn(C)n2)C(=O)C3(C)C)cn1 [Example 37, 6-(4-Isopropylimidazol-1-yl)-3,3-dimethyl-1-(1-methylpyrazol-3-yl)indolin-2-one] | 6.75 µM | 73.8% | 
7 | Cc1ncc(-c2ccc3c(c2)N(c2ccnc(F)c2)C(=O)C3(C)C)cn1 [Example 45, 1-(2-Fluoropyridin-4-yl)-3,3-dimethyl-6-(2-methylpyrimidin-5-yl)indolin-2-one] | 1 µM | 80.5% | 
8 | Cc1ccc(N2C(=O)C(C)(C)c3ccc(-c4cnc(C)nc4)cc32)nn1 [Example 48, 3,3-Dimethyl-1-(6-methylpyridazin-3-yl)-6-(2-methylpyrimidin-5-yl)indolin-2-one] | 0.055 µM |  | SmartCube similarity to major drug classes [3]: similarity to atypical antipsychotics; discrimination rate vs Clozapine (similarity analysis) [3]: 0.58; discrimination rate vs Olanzapine (similarity analysis) [3]: 0.61; discrimination rate vs Risperidone (similarity analysis) [3]: 0.67
9 | Cc1cnc(N2C(=O)C(C)(C)c3ccc(-c4cnc(C)nc4)cc32)nc1 [Example 53, 3,3-Dimethyl-1-(5-methylpyrimidin-2-yl)-6-(2-methylpyrimidin-5-yl)indolin-2-one] | 1.52 µM |  | SmartCube similarity to major drug classes [3]: similarity to atypical antipsychotics; discrimination rate vs Clozapine (similarity analysis) [3]: 0.59; discrimination rate vs Olanzapine (similarity analysis) [3]: 0.61; discrimination rate vs Risperidone (similarity analysis) [3]: 0.62
10 | Cc1ncc(-c2ccc3c(c2)N(c2ccc(C)c(C)n2)C(=O)C3(C)C)cn1 [Example 70, 1-(5,6-dimethylpyridin-2-yl)-3,3-dimethyl-6-(2-methylpyrimidin-5-yl)indolin-2-one] | 0.34 µM | 93.5% | 
11 | Cc1ncc(-c2ccc3c(c2)N(c2cnccn2)C(=O)C3(C)C)cn1 [Example 77, 3,3-dimethyl-6-(2-methylpyrimidin-5-yl)-1-(pyrazin-2-yl)indolin-2-one] | 2.41 µM | 92.6% | 
12 | Cc1ncc(-c2ccc3c(c2)N(c2cnc(C4CC4)cn2)C(=O)C3(C)C)cn1 [Example 95, 1-(5-cyclopropylpyrazin-2-yl)-3,3-dimethyl-6-(2-methylpyrimidin-5-yl)indolin-2-one] | 0.047 µM | 76.9% | 
13 | Cc1ncc(-c2ccc3c(c2)N(c2cncc(C4CC4)n2)C(=O)C3(C)C)cn1 [Example 97, 1-(6-cyclopropylpyrazin-2-yl)-3,3-dimethyl-6-(2-methylpyrimidin-5-yl)indolin-2-one] | 0.102 µM | 78.5% | 
14 | Cc1ncc(-c2ccc3c(c2)N(c2ncc(Cl)cn2)C(=O)C3(C)C)cn1 [Example 113, 1-(5-chloropyrimidin-2-yl)-3,3-dimethyl-6-(2-methylpyrimidin-5-yl)indolin-2-one] | 0.203 µM | 91.1% | 
15 | Cc1ncc(-c2ccc3c(c2)N(c2ccnnc2)C(=O)C3(C)C)cn1 [Example 120, 3,3-dimethyl-6-(2-methylpyrimidin-5-yl)-1-(pyridazin-4-yl)indolin-2-one] | 3.6 µM | 90.8% | 
16 | Cc1cc(N2C(=O)C(C)(C)c3ccc(-c4cnc(C)nc4)cc32)sn1 [Example 124, 3,3-dimethyl-1-(3-methylisothiazol-5-yl)-6-(2-methylpyrimidin-5-yl)indolin-2-one] | 0.226 µM | 53.3% | 
17 | Cc1ncc(-c2ccc3c(c2)N(c2ncc(C)s2)C(=O)C3(C)C)cn1 [Example 125, 3,3-dimethyl-6-(2-methylpyrimidin-5-yl)-1-(5-methylthiazol-2-yl)indolin-2-one] | 0.132 µM | 52% | 
18 | Cc1ncc(-c2ccc3c(c2)N(c2cnnc(Cl)c2)C(=O)C3(C)C)cn1 [Example 126, 1-(6-chloropyridazin-4-yl)-3,3-dimethyl-6-(2-methylpyrimidin-5-yl)indolin-2-one] | 2.21 µM | 74.7% | 
19 | Cc1ncc(-c2ccc3c(c2)N(c2nccnc2C)C(=O)C3(C)C)cn1 [Example 127, 3,3-dimethyl-1-(3-methylpyrazin-2-yl)-6-(2-methylpyrimidin-5-yl)indolin-2-one] | 7.73 µM | 72.8% | 
